Type in all cases: cell-based
The target in one experiment is T1, human PiT-1 (Homo sapiens, UniProt Q8WUM9).
T1 construct: expressed in transfected cells; host or cells: CHO cells
T1 sequence (Q8WUM9 1-679): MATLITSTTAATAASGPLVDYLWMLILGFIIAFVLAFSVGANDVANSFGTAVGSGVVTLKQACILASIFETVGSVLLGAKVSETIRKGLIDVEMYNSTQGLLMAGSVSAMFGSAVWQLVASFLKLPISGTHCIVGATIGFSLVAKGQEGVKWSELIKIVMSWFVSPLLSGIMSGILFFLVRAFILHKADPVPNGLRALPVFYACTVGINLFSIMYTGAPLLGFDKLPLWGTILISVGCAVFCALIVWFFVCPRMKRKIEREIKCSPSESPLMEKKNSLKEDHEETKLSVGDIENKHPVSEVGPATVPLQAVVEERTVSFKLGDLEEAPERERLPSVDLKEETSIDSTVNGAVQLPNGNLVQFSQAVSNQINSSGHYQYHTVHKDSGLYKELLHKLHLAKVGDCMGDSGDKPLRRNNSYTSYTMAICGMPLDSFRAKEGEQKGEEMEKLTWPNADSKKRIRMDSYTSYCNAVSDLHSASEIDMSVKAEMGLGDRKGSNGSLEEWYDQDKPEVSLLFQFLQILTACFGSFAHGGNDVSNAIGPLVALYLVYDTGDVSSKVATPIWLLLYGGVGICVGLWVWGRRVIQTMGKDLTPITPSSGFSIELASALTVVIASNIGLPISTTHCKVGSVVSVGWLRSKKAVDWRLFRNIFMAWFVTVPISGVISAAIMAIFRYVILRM
Nature of the experiment: Inhibitory effect on 33PO4 uptake into human PiT-1-expressing CHO cells. Conditions: compound 0.24, 1.2, 6 or 30 μM, pH 6.5, read-out: IC50 against 33PO4 uptake into human PiT-1-expressing cells. How it is done: Test Example 3: Inhibitory Effect on ^33PO4 Uptake into Human PiT-1-Expressing Cell
(§1) CHO cells were transfected with human PiT-1 expression plasmids or empty vectors to prepare human PiT-1-expressing cells and empty vector-expressing cells. The human PiT-1-expressing cells or the empty vector-expressing cells were inoculated to a 96-well plate and incubated overnight in a CO2 incubator. […] After a given time, a 1/20 volume of buffer A containing ^33PO4 was added thereto and reacted at room temperature. After washing with ice-cold buffer A, a liquid scintillator was added to each reaction mixture, and the amount of ^33PO4 uptake was measured using TopCount. The rate of inhibition was determined according to the following expression: Rate (%) of inhibition=(1−(Amount of ^33PO4 uptake in the compound-supplemented well containing the human PiT-1-expressing cells−Amount of ^33PO4 uptake in the compound-supplemented well containing the empty vector-expressing cells)/(Amount of ^33PO4 uptake in the DMSO-supplemented well containing the human PiT-1-expressing cells −Amount of ^33PO4 uptake in the DMSO-supplemented well containing the empty vector-expressing cells))×100

For the next experiment, the target named is T2, human PiT-2 (Homo sapiens, UniProt Q08357).
T2 construct: expressed in transfected cells; host or cells: CHO cells
T2 sequence (Q08357 1-652): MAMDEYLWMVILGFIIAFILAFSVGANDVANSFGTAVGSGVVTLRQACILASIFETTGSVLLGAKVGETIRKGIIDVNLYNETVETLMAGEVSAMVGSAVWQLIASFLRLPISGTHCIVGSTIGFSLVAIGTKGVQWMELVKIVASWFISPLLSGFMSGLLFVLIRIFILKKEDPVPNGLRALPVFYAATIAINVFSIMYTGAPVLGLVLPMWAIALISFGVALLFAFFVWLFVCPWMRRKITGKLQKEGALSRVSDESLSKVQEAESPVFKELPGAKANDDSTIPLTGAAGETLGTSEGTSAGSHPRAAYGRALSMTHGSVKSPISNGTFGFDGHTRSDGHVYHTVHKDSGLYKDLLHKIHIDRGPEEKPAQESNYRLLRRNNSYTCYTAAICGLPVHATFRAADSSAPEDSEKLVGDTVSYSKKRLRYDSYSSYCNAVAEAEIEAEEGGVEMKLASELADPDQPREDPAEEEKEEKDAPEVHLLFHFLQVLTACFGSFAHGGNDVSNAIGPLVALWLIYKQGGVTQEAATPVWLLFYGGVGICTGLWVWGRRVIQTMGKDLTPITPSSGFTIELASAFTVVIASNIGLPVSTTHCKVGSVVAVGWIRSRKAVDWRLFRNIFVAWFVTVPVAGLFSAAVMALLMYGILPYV
Nature of the experiment: Inhibitory effect on 33PO4 uptake into human PiT-2-expressing CHO cells. As to conditions: pH 6.5, read-out: IC50 against 33PO4 uptake into human PiT-2-expressing cells. How it is done: Test Example 4: Inhibitory Effect on ^33PO4 Uptake into Human PiT-2-Expressing Cell
as §1, with “PiT-2” for “PiT-1”, “PiT-2-expressing” for “PiT-1-expressing”

A further experiment addresses T3, human NaPi-IIb (Homo sapiens, UniProt O95436).
T3 construct: expressed in transfected cells
T3 sequence (O95436 1-690): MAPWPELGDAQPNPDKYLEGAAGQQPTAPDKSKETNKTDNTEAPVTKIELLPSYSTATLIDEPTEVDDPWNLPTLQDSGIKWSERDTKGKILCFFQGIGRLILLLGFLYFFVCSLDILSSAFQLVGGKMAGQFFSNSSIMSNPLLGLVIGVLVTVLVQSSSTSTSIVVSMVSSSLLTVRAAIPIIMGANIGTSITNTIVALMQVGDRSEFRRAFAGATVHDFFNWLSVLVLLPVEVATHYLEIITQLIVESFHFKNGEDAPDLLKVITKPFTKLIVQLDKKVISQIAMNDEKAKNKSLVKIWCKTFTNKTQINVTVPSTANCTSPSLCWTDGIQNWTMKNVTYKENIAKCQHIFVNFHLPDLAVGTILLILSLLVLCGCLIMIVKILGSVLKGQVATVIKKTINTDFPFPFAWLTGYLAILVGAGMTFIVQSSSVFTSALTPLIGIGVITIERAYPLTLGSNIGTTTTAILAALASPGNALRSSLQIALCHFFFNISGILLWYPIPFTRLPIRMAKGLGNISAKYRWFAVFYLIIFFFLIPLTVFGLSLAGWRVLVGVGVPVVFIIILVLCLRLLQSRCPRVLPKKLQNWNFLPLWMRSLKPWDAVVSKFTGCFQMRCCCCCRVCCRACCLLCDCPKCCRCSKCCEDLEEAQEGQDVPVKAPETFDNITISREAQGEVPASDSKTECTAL
Nature of the experiment: Inhibitory effect on 33PO4 uptake into human NaPi-IIb-expressing CHO cells. In outline: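 Uptake of ³³PO4 was measured by scintillation counting after ice-cold buffer A washes. Cells were CHO stably expressing human NaPi-IIb, seeded overnight, and exposed to ³³PO4 in buffer A at room temperature.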

[1] abbreviates: read-out: IC50 against 33PO4 uptake into human NaPi-IIb-expressing cells.

Each structure is given as a SMILES string. pIC50: −log10 of the molar value. Where two headings read alike, the source gives them in different places.

The pIC50 is −log10 of the IC50, conventionally taken in molar units.

As for `C[C@]12CCCN1N(Cc1ccc(OCCCCOC[C@H](O)CO)c(F)c1F)C(=O)C(C(=O)Nc1ccc(C(F)(F)F)cc1-c1cc(C(F)(F)F)ncn1)=C2O` [Example 152, (4aR)-1-[[4-[4-[(2R)-2,3-Dihydroxypropoxy]butoxy]-2,3-difluorophenyl]methyl]-4-hydroxy-4a-methyl-2-oxo-N-[4-(trifluoromethyl)-2-[6-(trifluoromethyl)pyrimidin-4-yl]phenyl]-6,7-dihydro-5H-pyrrolo [1,2-b]pyridazine-3-carboxamide], the pIC50 on human PiT-1 is 5.28; at human PiT-2, 5.46; at human NaPi-IIb (read-out: IC50) it was 4.69.

For `CN(C)CC(C)(C)COc1ccc(CN2C(=O)C(C(=O)Nc3ccc(C(F)(F)F)cc3-c3cc(C(F)(F)F)ncn3)=C(O)C3(CCCC3)N2C)c(F)c1F` [Example 414, 7-(4-(3-(Dimethylamino)-2,2-dimethylpropoxy)-2,3-difluorobenzyl)-10-hydroxy-6-methyl-8-oxo-N-(4-(tri-fluoromethyl)-2-(6-(trifluoromethyl)pyrimidin-4-yl)phenyl)-6,7-diazaspiro [4.5]dec-9-ene-9-carboxamide], the figures for the pIC50 at human PiT-1, on human PiT-2 and at human NaPi-IIb (setting [1]) were 5.72, 5.92 and 5.34, respectively.

For the compound `C[C@]12CCCN1N(Cc1ccc(OCCCOC[C@H](O)CO)c(F)c1F)C(=O)C(C(=O)Nc1ccc(C(F)(F)F)cc1-c1ccc(C(F)(F)F)nc1)=C2O` [Example 147, (4aR)-1-[[4-[3-[(2R)-2,3-Dihydroxypropoxy)propoxy]-2,3-difluorophenyl]methyl]-4-hydroxy-4a-methyl-2-oxo-N-[4-(trifluoromethyl)-2-[6-(trifluoromethyl)pyridin-3-yl]phenyl]-6,7-dihydro-5H-pyrrolo [1,2-b]pyridazine-3-carboxamide], the pIC50 at human PiT-1 is 5.36; on human PiT-2, 5.08; at human NaPi-IIb (read-out: IC50), 4.67.

With `CN1[C@@H](C(C)(C)C)C(O)=C(C(=O)Nc2ccc(C(F)(F)F)cc2-c2cc(C(F)(F)F)ncn2)C(=O)N1Cc1ccc(OCCN2CCOCC2)c(F)c1F` [Example 264, (3S)-3-tert-Butyl-1-[[2,3-difluoro-4-(2-morpholin-4-ylethoxy)phenyl]methyl]-4-hydroxy-2-methyl-6-oxo-N-[4-(trifluoromethyl)-2-[6-(trifluoromethyl)pyrimidin-4-yl]phenyl]-3H-pyridazine-5-carboxamide], the negative-log IC50 (pIC50) at human PiT-1 is 5.34; at human PiT-2, 5.42; at human NaPi-IIb (read-out: IC50), 4.71.

`CSc1ccc(-c2cc(Cl)ccc2NC(=O)C2=C(O)[C@H](C(C)(C)C)N(C)N(Cc3ccc(OCCN4CCOCC4)c(F)c3F)C2=O)cn1` [Example 269, (3S)-3-tert-Butyl-N-[4-chloro-2-(6-methylsulfanyl-pyridin-3-yl)phenyl]-1-[[2,3-difluoro-4-(2-morpholin-4-ylethoxy)phenyl]methyl]-4-hydroxy-2-methyl-6-oxo-3H-pyridazine-5-carboxamide]: the pIC50 on human PiT-1 was 5.10; at human PiT-2, 4.97; on human NaPi-IIb (read-out: IC50), 5.35.

Consider `C[C@]12CCCN1N(Cc1ccc(C#CCN3CCOCC3)c(F)c1F)C(=O)C(C(=O)Nc1ccc(C(F)(F)F)cc1-c1ccc(C(F)(F)F)nc1)=C2O` [Example 140, (4aR)-1-[[2,3-Difluoro-4-(3-morpholin-4-ylprop-1-ynyl)phenyl]methyl]-4-hydroxy-4a-methyl-2-oxo-N-[4-(trifluoromethyl)-2-[6-(tri-fluoromethyl)pyridin-3-yl]phenyl]-6,7-dihydro-5H-pyrrolo[1,2-b]pyridazine-3-carboxamide], for which the pIC50 on human PiT-1 is 5.42; on human PiT-2, 5.42; at human NaPi-IIb (read-out: IC50) it was 4.79.

Regarding `CN(C[C@H](O)[C@@H](O)[C@H](O)[C@H](O)CO)C(=O)CCCOc1ccc(CN2C(=O)C(C(=O)Nc3ccc(C(F)(F)F)cc3-c3cc(C(F)(F)F)ncn3)=C(O)C3(CCCC3)N2C)c(F)c1F` [Example 418, 7-[[2,3-Difluoro-4-[4-[methyl-[(2S,3R,4R,5R)-2,3,4,5,6-penta-hydroxyhexyl]amino]-4-oxobutoxy]phenyl]methyl]-10-hydroxy-6-methyl-8-oxo-N-[4-(trifluoromethyl)-2-[6-(trifluoromethyl)pyrimidin-4-yl]phenyl]-6,7-diazaspiro[4.5]dec-9-ene-9-carboxamide], the pIC50 on human PiT-1 was 5.39; at human PiT-2, 5.34; at human NaPi-IIb (setting [1]), 4.96.

Take `C[C@]12CCCN1N(Cc1cccc(Cl)c1F)C(=O)C(C(=O)Nc1cc(F)c(Br)c(F)c1)=C2O` [Example 196, (4aR)-N-(4-Bromo-3,5-difluorophenyl)-1-[(3-chloro-2-fluorophenyl)methyl]-4-hydroxy-4a-methyl-2-oxo-6,7-dihydro-5H-pyrrolo[1,2-b]pyridazine-3-carboxamide]: the pIC50 on human PiT-1 is 5.25; at human PiT-2, 5.21; on human NaPi-IIb (read-out: IC50) it was 5.55.

The values are drawn from patent US9499553B2 (CHUGAI SEIYAKU KABUSHIKI KAISHA, priority 2013, dated 2016).
